Experimental data from US12162858B2, “Quinoline derivatives as inhibitors of AXL/MER RTK and CSF1R” (QURIENT CO., LTD., priority 2018, dated 2024).
pIC50: −log10 of the molar value.

What follows are compounds tested against T1, Axl (Homo sapiens, UniProt P30530) (assay: Cellular Axl inhibition ELISA (p-Axl, Gas6-induced) using H1299 cells). Settings: read-out: Cellular Axl activity by H1299 Elisa (IC50).
T1 sequence (P30530 26-894): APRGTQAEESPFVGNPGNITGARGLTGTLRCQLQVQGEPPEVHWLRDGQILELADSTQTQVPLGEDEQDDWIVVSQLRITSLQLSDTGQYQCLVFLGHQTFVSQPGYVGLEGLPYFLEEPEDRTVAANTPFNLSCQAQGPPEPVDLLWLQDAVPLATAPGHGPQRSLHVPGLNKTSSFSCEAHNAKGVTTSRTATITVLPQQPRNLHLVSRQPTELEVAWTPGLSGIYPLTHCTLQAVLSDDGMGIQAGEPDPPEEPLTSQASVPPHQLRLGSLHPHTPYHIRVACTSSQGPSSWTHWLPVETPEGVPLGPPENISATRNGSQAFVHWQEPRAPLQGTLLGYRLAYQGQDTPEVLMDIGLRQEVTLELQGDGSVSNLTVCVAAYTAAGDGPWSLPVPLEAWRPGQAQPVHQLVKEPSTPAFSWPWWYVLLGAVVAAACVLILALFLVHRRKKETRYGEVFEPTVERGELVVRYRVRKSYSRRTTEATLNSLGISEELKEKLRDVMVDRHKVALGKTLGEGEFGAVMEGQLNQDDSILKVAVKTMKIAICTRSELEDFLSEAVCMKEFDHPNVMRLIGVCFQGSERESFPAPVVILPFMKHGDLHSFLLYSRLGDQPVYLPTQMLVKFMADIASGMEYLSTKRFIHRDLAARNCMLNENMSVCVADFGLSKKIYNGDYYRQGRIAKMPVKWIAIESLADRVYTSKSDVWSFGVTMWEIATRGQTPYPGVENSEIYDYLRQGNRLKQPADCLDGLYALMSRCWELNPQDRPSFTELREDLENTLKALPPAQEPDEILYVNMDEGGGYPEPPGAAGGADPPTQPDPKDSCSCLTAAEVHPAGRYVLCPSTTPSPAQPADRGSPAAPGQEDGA
Type: cell-based
Set-up: especially H1299 cell endogenously expresses Axl; endogenous in cells; host or cells: H1299
Protocol: Axl is expressed in several of malignant cancer cells; especially H1299 cell endogenously expresses Axl; and an increased phosphorylation of Axl (p-Axl) can be observed, when induced by the Axl ligand, Ga6.
The H1299 cells should be 40-80% confluent in the cell culture flask. Then cells are washed with DPBS and trypsinized. After centrifugation, the cell pellet is re-suspended with pre-warmed culture medium (RPMI1640, 10% FBS) and cells are separated by pipetting 6 times up and down with a 10 ml serological pipette. The cell suspension was diluted to a final concentration of 1.25×10^5 cells/ml. Then 80 μl/well cell suspension is added to the plate. Cell-plates are incubated at 37° C./5% CO2 overnight. Compounds were dissolved by DMSO to 10 mM, and kept in nitrogen cabinet. Prepare the compounds stock plate, the reference compounds concentration starts at 0.50 mM (5 μl+95 μl DMSO), and the tested compounds start at 1.5 mM (6 μl+34 μl DMSO); Then make a 3-fold dilution series (10 doses) compounds. Then dilute compounds by the medium in the mid plate (2 μl compounds+198 μl medium). Transfer 20 μl diluted compounds from mid plate to the cell coated plate. Cell-plates are incubated at 37° C./5% CO2 for 24 h. Add 25 μl of Human Gas6 (1000 ng/ml) to 96-well plate; the final concentration of Human Gas6 is 200 ng/ml. Incubate the plates at 37° C./5% CO2 for 1 h. Remove medium and wash cells once with 300 ul/well ice-cold 1×PBS. Then remove PBS and add 100 μl/well ice-cold 1× Cell Lysis Buffer to 96-well plate. The plate is shaken for 40 min at 4° C. Then plates can be stored at −20° C. After the micro-wells strips have reached room temperature, break off the required number of micro-wells. Place the micro-wells in the strip holder. Unused micro-wells must be resealed and stored at 4° C. immediately. Add 60 μl of cell lysate to the appropriate well. Seal with tape and press firmly onto top of micro-wells. Incubate the plate at 37° C. for 2 h. Gently remove the tape and wash wells 5 times with 1× Wash Buffer, 300 μl each time for each well. Add 100 μl of reconstituted Detection Antibody (green color) to each well. Seal with tape and incubate the plate at 37° C. for 1 h. Repeat wash procedure. Add 100 μl of reconstituted HRP Linked secondary antibody to each well. Seal with tape and incubate the plate at 37° C. for 30 min. Repeat wash procedure. Add 100 μl of TMB Substrate to each well. Seal with tape and incubate the plate at 37° C. for 15 min. Add 100 μl of STOP Solution to each well. Shake gently for a few seconds. Read absorbance at 450 nm within 30 min after adding STOP Solution. Calculations and Formulas: The following calculations and formulas are used for data analysis using XL Fit software: The curve fitting was made using the Sigmoidal Dose-Response Model (Fit model, 205).

Structure (SMILES)	pIC50
CCC(=O)n1cc(OCC(F)(F)F)c(C(=O)Nc2ccc(Oc3ccnc4cc(OC)c(OC)cc34)cn2)n1 [Compound 20]	> 6.30
COc1cc2nccc(Oc3ccc(NC(=O)c4nn(CC(C)N)cc4OCC(F)(F)F)nc3)c2cc1OC (stereo not drawn) [Compound 63]	> 6.30
COc1cc2nccc(Oc3ccc(NC(=O)c4nn(C)cc4OCC(F)(F)F)nc3)c2cc1OC [Compound 33]	> 6.30
COc1cc2nccc(Oc3ccc(NC(=O)c4nn(CCO)cc4OCC(F)(F)F)cc3F)c2cc1OC [Compound 51]	> 6.30
CCCn1cc(OCC(F)(F)F)c(C(=O)Nc2ccc(Oc3ccnc4cc(OC)c(OC)cc34)cc2)n1 [Compound 38]	> 6.30
COc1cc2nccc(Oc3ccc(NC(=O)c4nn(C5CCOC5)cc4OCC(F)(F)F)nc3)c2cc1OC (stereo not drawn) [Compound 13]	> 6.30
COCCn1cc(OCC(F)(F)F)c(C(=O)Nc2ccc(Oc3ccnc4cc(OC)c(OC)cc34)c(F)c2)n1 [Compound 54]	> 6.30
COc1cc2nccc(Oc3ccc(NC(=O)c4nn(C5CCC5)cc4OCC(F)(F)F)nc3)c2cc1OC [Compound 24]	> 6.30
COc1cc2nccc(Oc3ccc(NC(=O)c4nn(C5CCCC5)cc4OCC(F)(F)F)cc3F)c2cc1OC [Compound 52]	> 6.30
COc1cc2nccc(Oc3ccc(NC(=O)c4nn(C(C)C)c(C)c4OCC(F)(F)F)nc3)c2cc1OC [Compound 2]	> 6.30
CCCn1cc(OCCC(F)(F)F)c(C(=O)Nc2ccc(Oc3ccnc4cc(OC)c(OC)cc34)cn2)n1 [Compound 31]	> 6.30
COc1cc2nccc(Oc3ccc(NC(=O)c4nn(CC(C)=O)cc4OCC(F)(F)F)nc3)c2cc1OC [Compound 19]	> 6.30
COc1cc2nccc(Oc3ccc(NC(=O)c4nn(C(C)(C)C)cc4OCC(F)(F)F)nc3)c2cc1OC [Compound 22]	> 6.30
COc1cc2nccc(Oc3ccc(NC(=O)c4nn(C)cc4OCC(F)(F)F)cc3F)c2cc1OC [Compound 50]	> 6.30
COc1cc2nccc(Oc3ccc(NC(=O)c4nn(CCO)cc4OCC(F)(F)F)cc3C)c2cc1OC [Compound 56]	≤ 6.00
COc1cc2nccc(Oc3ccc(NC(=O)c4nn(C[C@@H](C)O)cc4OCC(F)(F)F)nc3)c2cc1OC [Compound 29]	> 6.30

Structure (SMILES)	pIC50
COc1cc2nccc(Oc3ccc(NC(=O)c4nn(C5CCCC5)cc4OCC(F)(F)F)cc3)c2cc1OC [Compound 60]	> 6.30
COc1cc2nccc(Oc3ccc(NC(=O)c4nn(C5CCCC5)cc4OCC(F)(F)F)nc3)c2cc1OC [Compound 40]	> 6.30
COc1cc2nccc(Oc3ccc(NC(=O)c4nn(C)cc4OCC(F)(F)F)c(F)c3)c2cc1OC [Compound 45]	6.00 to 6.30
COc1cc2nccc(Oc3ccc(NC(=O)c4nn(CCCO)cc4OCC(F)(F)F)nc3)c2cc1OC [Compound 18]	> 6.30
COc1cc2nccc(Oc3ccc(NC(=O)c4nn(CC5CCC5)cc4OCC(F)(F)F)nc3)c2cc1OC [Compound 42]	> 6.30
COc1cc2nccc(Oc3ccc(NC(=O)c4nn(CCO)cc4OCC(F)(F)F)cc3)c2cc1OC [Compound 59]	> 6.30
COc1cc2nccc(Oc3ccc(NC(=O)c4nn(CC(C)C)cc4OCC(F)(F)F)nc3)c2cc1OC [Compound 21]	> 6.30
COc1cc2nccc(Oc3ccc(NC(=O)c4nn(CC5CCCCC5)cc4OCC(F)(F)F)nc3)c2cc1OC [Compound 43]	> 6.30
COc1cc2nccc(Oc3ccc(NC(=O)c4nn(C5CCCC5)cc4OCC(F)(F)F)c(F)c3)c2cc1OC [Compound 47]	> 6.30
COc1cc2nccc(Oc3ccc(NC(=O)c4nn(CC(C)C)cc4OCC(F)(F)F)c(F)c3)c2cc1OC [Compound 48]	> 6.30
COc1cc2nccc(Oc3ccc(NC(=O)c4nn(CC5CCOC5)cc4OCC(F)(F)F)nc3)c2cc1OC (stereo not drawn) [Compound 44]	> 6.30
COc1cc2nccc(Oc3ccc(NC(=O)c4nn(CC5CC5)cc4OCC(F)(F)F)nc3)c2cc1OC [Compound 41]	> 6.30
COc1cc2nccc(Oc3ccc(NC(=O)c4nn(C5CCOC5)cc4OCC(F)(F)F)cc3F)c2cc1OC (stereo not drawn) [Compound 55]	> 6.30
COCCn1cc(OCC(F)(F)F)c(C(=O)Nc2ccc(Oc3ccnc4cc(OC)c(OC)cc34)cc2F)n1 [Compound 49]	> 6.30
CCCn1cc(OCC(F)(F)F)c(C(=O)Nc2ccc(Oc3ccnc4cc(OC)c(OC)cc34)c(F)c2)n1 [Compound 25]	> 6.30
COc1cc2nccc(Oc3ccc(NC(=O)c4nn(C5CCCC5)cc4OCC(F)(F)F)cc3C)c2cc1OC [Compound 57]	> 6.30

Further lines, results first:

pIC50	Structure (SMILES)
> 6.30	COc1cc2nccc(Oc3ccc(NC(=O)c4nn(C5CCNC5)cc4OCC(F)(F)F)nc3)c2cc1OC (stereo not drawn) [Compound 70]
> 6.30	COc1cc2nccc(Oc3ccc(NC(=O)c4nn(CC(C)(F)F)cc4OCC(F)(F)F)nc3)c2cc1OC [Compound 64]
> 6.30	COCCOc1cn(C2CC2)nc1C(=O)Nc1ccc(Oc2ccnc3cc(OC)c(OC)cc23)nn1 [Compound 171]
≤ 6.00	COc1cc2nccc(Oc3ccc(NC(=O)c4nn(C5CC5)cc4OCC4CNC4)nn3)c2cc1OC [Compound 172]
> 6.30	COc1cc2nccc(Oc3ccc(NC(=O)c4nn(C5CCNC5)cc4OCC(F)(F)F)c(F)c3)c2cc1OC (stereo not drawn) [Compound 74]
> 6.30	COc1cc2nccc(Oc3ccc(NC(=O)c4nn(CCNC5CC5)cc4OCC(F)(F)F)nc3)c2cc1OC [Compound 168]
> 6.30	COc1cc2nccc(Oc3ccc(NC(=O)c4nn(CC(C)O)cc4OCC(F)(F)F)c(F)c3)c2cc1OC (stereo not drawn) [Compound 76]
> 6.30	CCCn1cc(OCCN(C)C)c(C(=O)Nc2ccc(Oc3ccnc4cc(OC)c(OC)cc34)cn2)n1 [Compound 177]
≤ 6.00	COc1cc2nccc(Oc3ccc(NC(=O)c4nn(CC5CNC5)cc4OCC(F)(F)F)nc3)c2cc1OC [Compound 73]
> 6.30	COc1cc2nccc(Oc3ccc(NC(=O)c4nn(C5COC5)cc4OCC(F)(F)F)nc3)c2cc1OC [Compound 66]
> 6.30	COc1cc2nccc(Oc3ccc(NC(=O)c4sc(C5CC5)cc4OCC(F)(F)F)nc3)c2cc1OC [Compound 179]
> 6.30	COc1cc2nccc(Oc3ccc(NC(=O)c4nn(C5CC5)cc4OCCC(F)(F)F)nn3)c2cc1OC [Compound 173]
≤ 6.00	COc1cc2nccc(Oc3ccc(NC(=O)c4nn(CC(C)O)cc4OCC4CN(C)C4)nc3)c2cc1OC (stereo not drawn) [Compound 174]
> 6.30	COc1cc2nccc(Oc3ccc(NC(=O)c4cc(C5CC5)cnc4OCC(F)(F)F)nc3)c2cc1OC [Compound 178]
≤ 6.00	COc1cc2nccc(Oc3ccc(NC(=O)c4nn(CC5CCN(C)C5)cc4OCC(F)(F)F)nc3)c2cc1OC (stereo not drawn) [Compound 169]
> 6.30	COc1cc2nccc(Oc3ccc(NC(=O)c4nn(CCOC5CCC5)cc4OCC(F)(F)F)nc3)c2cc1OC [Compound 65]
